The values that follow come from patent US11498896B2 (The Broad Institute, Inc., priority 2014, dated 2022).

For orientation: IC50 means the concentration that gives 50% inhibition. A high value points to weaker potency. For orientation: AUC means concentration integrated over time. A lower AUC goes with less exposure. What is called Cmax is the highest concentration seen after dosing.

One data set concerns the target human D2R/β-arrestin (Homo sapiens (Human), UniProt P14416). Description: cell-based. The following applies: β-arrestin Antagonist, CHO-K1 cells expressing human D2R/β-arrestin; antagonist mode, quinpirole 130 nM.
A further data set relates to mice. Description: Amphetamine induced hyperactivity (AIH). The data set is classed as in vivo. The settings on record: in comparison with vehicle. As to the method:
Amphetamine Induced Hyperactivity Studies
Amphetamine-induced hyperactivity (AIH) was examined in eight identical open-field chambers (16.5″×16″×12″; AccuScan Instruments, Columbus, Ohio). Activity was detected by infrared beam breaks and recorded automatically by VersaMax software (AccuScan). Daily sessions were automatically binned in 5 minute intervals (VersaDat; AccuSacn) for statistical analysis. AIH was run over three consecutive days as follows:
Day 1: Mice were acclimated to the injection procedure by injecting 30 minutes prior to being placed in the chambers (to match the timing of day 3 compound administration). Mice were then placed into the open-field for 20 minutes and then removed for a saline injection (to match the timing of amphetamine administration on day 3). Mice were placed back into the open-field for an additional 30 minutes, at which point the mice were returned to their home cage.
Day 2 was run identically to Day 1, with the exception that the second day lasted for one hour (20 minutes→injection→40 minutes).
Day 3 was the amphetamine challenge day. Mice were pre-treated with D2 antagonist compounds (compound of Example 90) 30 minutes prior to being placed in the open field. After 20 minutes, mice were removed and challenged with amphetamine, following protocols known to one skilled in the art, for example Jones C. […]

Data set [1] in a line: Pharmacokinetic and brain distribution study in mice. The data set is classed as in vivo. The following applies: single intraperitoneal dose 30 mg/kg, male C57BL/6 mice. As to the method:
Pharmacokinetic Studies on Mice Brains
Twelve male C57BL/6 mice were weighed and administered intraperitoneally with a dose of test compound (Examples 90, 157, 125) solution formulation. The dosing volume administered for the intraperitoneal route was at 10 mL/kg. Blood samples (approximately […]) were collected from retro-orbital plexus of each mouse under light isoflurane anesthesia at 0.08, 0.5, 1, 2, 4, and 8 hr. Following the collection of blood, plasma was also harvested by centrifugation and stored at −70° C. until analysis. After collection of plasma, the animals were euthanized and brain samples were isolated at 0.08, 0.5, 1, 2, 4, and 8 hr. Tissue samples (brain) were homogenized using ice-cold phosphate buffer saline (pH 7.4) and homogenates were stored below −70° C. until analysis. Total homogenate volume was three times the tissue weight. Concentrations of test compound in mouse plasma and brain samples were determined by LC-MS/MS method.
Identical extraction procedures were used for the plasma/brain homogenate study samples and the spiked plasma calibration standards: A 25 μL sample of either study sample (plasma/brain) or spiked calibration standard was added to individual pre-labeled micro-centrifuge tubes. A volume of 100 μL of IS (antipyrine, 500 ng/mL) prepared in acetonitrile was then added to the micro-centrifuge tubes, except in a sample used as a negative control where only acetonitrile was added and vortexed for 5 minutes. Samples were centrifuged for 20 minutes at the speed of 4000 rpm at 4° C. Following centrifugation, 100 μL of the supernatant was sampled from each centrifuge tube and transferred into insert vials. These vials remained within the auto-sampler for the LC/MS/MS analysis. Standards used for calibration were prepared by spiking 10 μL of the test compound in 190 μL of control (used as a negative control) mouse plasma/brain homogenate.
The plasma and brain concentration-time data of test compounds was provided for data analysis. The plasma and brain concentration-time data was then used for the pharmacokinetic analysis. Non-Compartmental-Analysis module in Phoenix® WinNonlin® (Version 6.3) was used to assess the pharmacokinetic parameters. Peak plasma concentrations (Cmax) and time for the peak plasma concentrations (Tmax) were the observed values. The areas under the concentration time curve (AUClast and AUCinf) were calculated by linear trapezoidal rule. The terminal elimination rate constant, ke was determined by regression analysis of the linear terminal portion of the log plasma concentration-time curve.
Illustrative results are presented in FIG. 2, the pharmacokinetic parameters are as follow: […]

Like-named read-outs stand apart in the source and are kept apart here.

Chain of human D2R/β-arrestin (P14416 whole entry): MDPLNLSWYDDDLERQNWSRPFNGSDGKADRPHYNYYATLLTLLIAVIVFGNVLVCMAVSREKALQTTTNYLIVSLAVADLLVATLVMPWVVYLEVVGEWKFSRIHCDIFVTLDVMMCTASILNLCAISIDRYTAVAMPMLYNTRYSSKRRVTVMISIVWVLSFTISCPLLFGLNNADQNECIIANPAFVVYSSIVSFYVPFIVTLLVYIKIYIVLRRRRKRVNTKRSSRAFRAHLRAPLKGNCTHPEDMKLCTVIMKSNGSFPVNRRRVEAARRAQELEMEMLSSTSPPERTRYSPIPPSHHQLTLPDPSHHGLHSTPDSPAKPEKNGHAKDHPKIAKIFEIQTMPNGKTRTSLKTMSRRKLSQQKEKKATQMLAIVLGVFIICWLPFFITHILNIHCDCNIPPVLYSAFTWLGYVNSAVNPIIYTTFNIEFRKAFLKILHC

Consider `CC1(Oc2ccc(Cl)cc2)CCN(CCOc2ccccc2C(F)(F)F)CC1` [Compound 90, 4-(4-Chlorophenoxy)-4-methyl-1-(2-(2-(trifluoromethyl)phenoxy)ethyl) piperidine], for which the IC50 at human D2R/β-arrestin lay in the range of 0.1 to 1 µM. Further, in the data set on mice, the “attenuation of amphetamine induced hyperactivity (AIH)” value was “dose-dependently attenuates AIH in mice and shows efficacy at 30 mg/kg”. In data set [1] (brain), the “Brain AUC” value was 34.2 µM·h and the “Brain Cmax” value came out at 7.23 µM. The half-life in data set [1] (mouse, ip, brain, read-out: Brain T1/2 (converted)) was 4.2 h. In data set [1] (mouse, ip, plasma), this compound showed an AUC of 4.4 µM·h and a Cmax of 1.44 µM. In addition, the half-life in data set [1] (mouse, ip, plasma, read-out: Plasma T1/2 (converted)) was 4.7 h.
